This note sets out measurements from patent US7446127B2, “Chroman carboxylic acid derivatives for the treatment of diabetes and lipid disorders” (SK Holdings Co, Ltd., priority 2003, dated 2008).

The subject of this assay is differentiated 3T3-L1 adipocytes. Put plainly: Glucose transport assay (2-deoxy-D-glucose uptake). To be noted: 48 hr; for Fold Stimulation (50 μM) of 2-deoxy-D-glucose uptake, Insulin + Compound: 50 μM compound + 100 nM insulin; for fold induction at 50 µM: Mus musculus, 50 μM compound alone, read-out: Fold Stimulation (50 μM) of 2-deoxy-D-glucose uptake, Compound only. The assay is classed as cell-based. The procedure: 3T3-L1 fibroblasts (American Type Culture Collection) were plated and grown for 2 days postconfluence in Dulbecco's modified Eagle's medium (DMEM; 4,500 mg/L glucose, HyClone) supplemented 10% FBS, 10 μg/mL penicillin and streptomycin in an atmosphere of 5% CO2 at 37° C. Adipocyte differentiation was then induced using standard protocol. After 48 hr, the differentiation medium was replaced with maintenance medium containing DMEM supplemented with 10% FBS. The maintenance medium was changed every 3 days until the cells were utilized for experimentation. Glucose transport activity was measured in the presence or absence of insulin and the protocol was modified from Kletzien, R F et al. (1992) Molecular Pharmacology 41:393-398. Briefly, differentiated 3T3-L1 adipocytes were incubated with vehicle (DMSO), insulin (100 nM) alone, test compound (50 μM) alone and a combination of insulin (100 nM)+test compound (50 μM) for 48 hr. Medium was changed twice a day in the presence of compound. Glucose uptake was measured using 2-Deoxy-D-[1−^3H] glucose as label after 90 min incubation with each compound. […] In the series of compounds, one of the best result was obtained with 7-[2-(5-methyl-2-phenyl-4-oxazolyl)-ethoxy]-chroman-3-carboxylic acid (Example 1).

Turning to `COC(=O)C1COc2cc(OCCc3nc(-c4ccccc4)oc3C)ccc2C1` (centres unmarked) [Example 12, Methyl 7-[2-(5-Methyl-2-phenyl-4-oxazolyl)ethoxy]chromane-3-carboxylate], the “Fold Stimulation (50 μM) of 2-deoxy-D-glucose uptake, Insulin + Compound” value (from here on “Fold Stimulation (50 μM)”) is reported as 6.0 fold and the fold induction at 50 µM is 1.1.

For the compound `Cc1oc(-c2ccc(Br)cc2)nc1COc1ccc2c(c1)OCC(C(=O)O)C2` (centres unmarked) [Example 10, 7-[(2-(4-bromophenyl)-5-methyl-1,3-oxazol-4-yl)methoxy]chromane-3-carboxylic acid], the “Fold Stimulation (50 μM)” value worked out at 5.1 fold and the fold induction at 50 µM amounted to 1.

Take `Cc1oc(-c2ccccc2)nc1CCOc1ccc2c(c1)OCC(C(=O)NS(C)(=O)=O)C2` (centres unmarked) [Example 9]: the “Fold Stimulation (50 μM)” value is listed as 6.2 fold and the fold induction at 50 µM came to 1.2.

`Cc1oc(-c2ccc(F)cc2)nc1CCOc1ccc2c(c1)OCC(C(=O)O)C2` (centres unmarked) [Example 3]: the “Fold Stimulation (50 μM)” value is 5.9 fold and the fold induction at 50 µM turned out to be 1.3.

Take `Cc1oc(-c2ccccc2)nc1COc1ccc2c(c1)OCC(C(=O)O)C2` (centres unmarked) [Example 6, 7-[(2-phenyl-5-methyl-1,3-oxazol-4-yl)methoxy]chromane-3-carboxylic acid]: the “Fold Stimulation (50 μM)” value is given as 10.7 fold and the fold induction at 50 µM came to 1.4.

`Cc1oc(-c2cccs2)nc1CCOc1ccc2c(c1)OCC(C(=O)O)C2` (centres unmarked) [Example 4, 7-[2-(5-methyl-2-thien-2-yl-1,3-oxazol-4-yl)ethoxy]chromane-3-carboxylic acid]: the “Fold Stimulation (50 μM)” value is on record as 7.6 fold and the fold induction at 50 µM amounted to 1.5.

With `O=C(O)C1COc2cc(OCCc3nc(-c4ccccc4)oc3-c3ccccc3)ccc2C1` (centres unmarked) [Example 5], the “Fold Stimulation (50 μM)” value was 8.1 fold and the fold induction at 50 µM was determined as 1.7.

Consider `Cc1oc(-c2ccccc2)nc1CCOc1ccc2c(c1)OCC(C(N)=O)C2` (centres unmarked) [Example 13, 7-[2-(5-Methyl-2-phenyl-4-oxazolyl)ethoxy]chromane-3-carboxylic acid amide], for which the “Fold Stimulation (50 μM)” value turned out to be 8.8 fold and the fold induction at 50 µM stood at 1.7.

As to `Cc1oc(-c2ccccc2)nc1CCCOc1ccc2c(c1)OCC(C(=O)O)C2` (centres unmarked) [Example 7, 7-[3-(5-Methyl-2-phenyl-4-oxazolyl)propoxy]chromane-3-carboxylic acid], the “Fold Stimulation (50 μM)” value came out at 6.5 fold and the fold induction at 50 µM stood at 1.4.

Consider `Cc1oc(-c2ccccc2)nc1CCOc1ccc2c(c1)OCC(C(=O)NS(=O)(=O)c1ccccc1)C2` (centres unmarked) [Example 8], for which the “Fold Stimulation (50 μM)” value turned out to be 8.8 fold and the fold induction at 50 µM was 1.5.

In the case of `Cc1oc(-c2ccc(-c3ccccc3)cc2)nc1COc1ccc2c(c1)OCC(C(=O)O)C2` (centres unmarked) [Example 11], the “Fold Stimulation (50 μM)” value came out at 4.6 fold and the fold induction at 50 µM is 1.3.

`CCc1ccc(CCOc2ccc(CC3SC(=O)NC3=O)cc2)nc1` (centres unmarked) [Pioglitazone, reference compound]: the “Fold Stimulation (50 μM)” value came out at 7.6 fold and the fold induction at 50 µM is 1.9.

As to `Cc1oc(-c2ccccc2)nc1CCOc1ccc2c(c1)OCC(CC(=O)O)C2` (centres unmarked) [Example 14, {7-[2-(5-Methyl-2-phenyl-oxazol-4-yl)-ethoxy]-chroman-3-yl}-acetic acid], the “Fold Stimulation (50 μM)” value was 6.9 fold and the fold induction at 50 µM stood at 1.4.
